In patent US9303009B2, “Migrastatins and uses thereof” (Sloan-Kettering Institute for Cancer Research, priority 2011, dated 2016):

Tests used:
[1] = system: CAG multiple myeloma cells; assay: multiple myeloma transwell migration towards SDF-1α; type: cell-based; conditions: pretreatment 8 h, transmigration 6 h
Procedure: (§1) Multiple myeloma cell chemotaxis was performed towards a SDF-1α in a modified Boyden chamber consisting of a cell culture insert (4.26 mm diameter, 8-μm pore polyester membrane) seated in each well of a 96-well plate (HTS Transwell-96 System, Corning). Briefly, multiple myeloma cells were grown as subconfluent cultures then starved for 24 hours in serum-free IMDM medium. Single-cell suspensions were prepared by mechanical dissociation, then the cells were counted and a total of 5.10^4 cells suspended in serum-free IMDM medium were seeded into the upper chamber, then positioned in a 96-well plate, containing medium with or without SDF-1α (at 200 ng/mL). […] Migrastatin analogs or DMSO (vehicle) were added to the medium at 0.5% in both chambers. Migration assays were carried out for 6 hours in a humidified incubator at 37° C. with 5% CO2. At the assay endpoint, the inserts were removed and the migrating cells were counted in the well. The migration in response to the test condition was calculated relative to the DMSO vehicle control.

[2] = system: H929 multiple myeloma cells; assay: as above; type: cell-based; conditions: pretreatment 8 h, transmigration 6 h
Procedure: as §1

[3] = system: multiple myeloma (RPMI8226, MM1S, ARP-GL, CAG-GL, OPM2-GL, SKO-007-GL, U266-GL, MM1R cells); assay: toxicity by alamarBlue, multiple myeloma cell lines; type: cell-based, human; conditions: mean of 8 cell lines
Procedure: (§2) The toxicity of compounds 42-45 and their IC50 was determined on a panel of human tumor cell lines of multiple myeloma (RPMI8226, MM1S, MM1R, ARP-GL, CAG-GL, OPM2-GL, SKO-007-GL, U266-GL,) and lung cancer (H299-GL, H522-GL, H647-GL, A549-GL, A549-GL, HI993, H1075-GL, HI373, H17030) origin. Tumor cells were dissociated into a single-cell suspension by Trypsin/Collagenase IV treatment and 500 cells per well were aliquoted into each well of 384 microwell plates in 50 μl of RPMI medium with 10% FCS. Compounds 42-45 were dissolved in DMSO and serially diluted in RPMI medium plus 10% FCS and added (1 mM to 1 nM) to quadruplicate wells containing tumor cells. Dilutions of DMSO without compound were used as a control. After 18 hrs or 2 days, the cultures were pulsed with 6 μl of alamarBlue® (Invitrogen Inc. Grand Island, N.Y.) and incubated overnight. The alamarBlue® provides a cell growth indicator based on detection of metabolic activity. The assay system incorporates an oxidation-reduction indicator that both fluoresces and changes color in response to chemical reduction of growth medium resulting from cell growth. The fluorescence intensity was measured using a Synergy H1 Microplate Reader (Biotek Inc, Winooski, VT) and a dose-response curve established for IC50 determination.

[4] = system: lung cancer (H299-GL, H522-GL, H647-GL, A549-GL, H1993, H1075-GL, H1373-GL H1703 cells); assay: toxicity by alamarBlue, lung cancer cell lines; type: cell-based; conditions: mean of 8 cell lines
Procedure: Dilutions of DMSO without compound were used as a control. After 18 hrs or 2 days, the cultures were pulsed with 6 μl of alamarBlue® (Invitrogen Inc. Grand Island, N.Y.) and incubated overnight. The alamarBlue® provides a cell growth indicator based on detection of metabolic activity. The assay system incorporates an oxidation-reduction indicator that both fluoresces and changes color in response to chemical reduction of growth medium resulting from cell growth. The fluorescence intensity was measured using a Synergy H1 Microplate Reader (Biotek Inc, Winooski, VT) and a dose-response curve established for IC50 determination.

[5] = system: human tumor cell lines of multiple myeloma and lung cancer; assay: toxicity by alamarBlue, whole panel; type: cell-based
Procedure: as §2

| Compound | % of migration relative to DMSO control ([1]; 5 μM) | % of migration relative to DMSO control ([1]; 250 μM) | % of migration relative to DMSO control ([2]; 5 μM) | % of migration relative to DMSO control ([2]; 250 μM) | Estimated lethal doses (LD50) ([3]; 18 h exposure) | Estimated lethal doses (LD50) ([3]; 48 h exposure) | Estimated lethal doses (LD50) ([4]; 18 h exposure) | Estimated lethal doses (LD50) ([4]; 48 h exposure) | IC50 [5] |
| --- | --- | --- | --- | --- | --- | --- | --- | --- | --- |
| COC(=O)CO[C@H]1[C@H](C)/C=C(/C)COCCCCC/C=C/[C@@H]1OC [Compound 42] | 93.63% | 0.23% | 91.03% | 7.08% | 515.2 µM | 476.4 µM | 741.2 µM | 602.7 µM | 300 to 795 µM |
| CNC(=O)CO[C@H]1[C@H](C)/C=C(/C)COCCCCC/C=C/[C@@H]1OC [Compound 44] | 86.22% | 0.05% | 81.48% | 4.06% | 182.5 µM | 210.6 µM | 299.7 µM | 316.7 µM | 300 to 795 µM |
| CO[C@H]1/C=C/CCCCCOC/C(C)=C\[C@@H](C)[C@@H]1OCCO [Compound 43] | 82.04% | 0.71% | 52.26% | 0.98% | 530.8 µM | 406.1 µM | 523.9 µM | 510.7 µM | 300 to 795 µM |
| CCNC(=O)O[C@H]1[C@H](C)/C=C(/C)COCCCCC/C=C/[C@@H]1OC [Compound 45] | 54.48% | 0.58% | 62.38% | 5.51% | 275.6 µM | 217.3 µM | 446.9 µM | 446.8 µM | 300 to 795 µM |
